Read-outs that look alike come from different tables or passages of the source.
What was measured:
[1] = target: NDM-1 (Klebsiella pneumoniae, UniProt C7C422); assay: biochemical; type: biochemical; conditions: fluorescence assay, CCF2-FA substrate, 1 pM enzyme, 2 hours at 25° C.; read-out: NDM-1 IC50
Summary of the method: (§1)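 Inhibitor was mixed with the metallo-β-lactamase and CCF2-FA. After 2 hours at 25° C, fluorescence of the coumarin–fluorescein cephalosporin substrate was read. IC50 was calculated with a 4-parameter fit.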

[2] = target: IMP-1 (Serratia marcescens, UniProt P52699); assay: biochemical; type: biochemical; conditions: fluorescence assay, CCF2-FA substrate, 2 pM enzyme, 2 hours at 25° C.; read-out: IMP-1 IC50
Summary of the method: as §1

[3] = test system: Escherichia coli expressing NDM-1 (CLB30005, CLB30016); type: cell-based; conditions: with imipenem 1 μg/ml; 95% inhibition of bacterial growth
Summary of the method: (§2)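 Imipenem 1 μg/ml + inhibitor; MBL-expressing clinical strains in 1.1×CAMHB, inoculum from saline suspension diluted 1:100; 35° C, 22–24 h; absorbance read-out.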

[4] = test system: Klebsiella pneumoniae expressing VIM-1 (IHMA599644); type: cell-based; conditions: with imipenem 1 μg/ml; 95% inhibition of bacterial growth
Summary of the method: as §2

[5] = test system: Serratia marcescens expressing IMP-1 (CL5741); type: cell-based; conditions: with imipenem 1 μg/ml; 95% inhibition of bacterial growth
Summary of the method: as §2

[6] = test system: Pseudomonas aeruginosa efflux− (MB9799), IMP-1; type: cell-based; conditions: concentration restoring susceptibility to imipenem at 2 μg/mL in the presence of a class A, C, D serine β-lactamase inhibitor closely related to relebactam
Summary of the method: (§3)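 P. aeruginosa PAO1-derived IMP-1 strains, efflux+ MB9798 and efflux− MB9799, tested by standard microbroth MIC with imipenem and/or ceftazidime fixed, usually at CLSI breakpoint, plus fixed class A/C β-lactamase inhibitor against AmpC. Inhibitor titrated; concentration restoring susceptibility recorded; MB9798/MB9799 fold difference indicates efflux.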

[7] = test system: Pseudomonas aeruginosa MB9798 vs MB9799; conditions: ratio MITC95 PA_9798/MITC95 PA_9799
Summary of the method: as §3

[8] = test system: Pseudomonas aeruginosa efflux+ (MB9798), IMP-1; type: cell-based; conditions: concentration restoring susceptibility to imipenem at 2 μg/mL in the presence of a class A, C, D serine β-lactamase inhibitor closely related to relebactam
Summary of the method: as §3

[9] = target: VIM-1 (Pseudomonas aeruginosa (strain ATCC 15692 / DSM 22644 / CIP 104116 / JCM 14847 / LMG 12228 / 1C / PRS 101 / PAO1), UniProt A0A0F7KYQ8); assay: biochemical; conditions: CCF2-FA substrate, 30 pM enzyme, 2 hours at 25° C.
Summary of the method: as §1

[10] = fluorescence assay, read-out: VIM-1 IC50

Sequence of NDM-1 (C7C422 whole entry, looked up, species assumed): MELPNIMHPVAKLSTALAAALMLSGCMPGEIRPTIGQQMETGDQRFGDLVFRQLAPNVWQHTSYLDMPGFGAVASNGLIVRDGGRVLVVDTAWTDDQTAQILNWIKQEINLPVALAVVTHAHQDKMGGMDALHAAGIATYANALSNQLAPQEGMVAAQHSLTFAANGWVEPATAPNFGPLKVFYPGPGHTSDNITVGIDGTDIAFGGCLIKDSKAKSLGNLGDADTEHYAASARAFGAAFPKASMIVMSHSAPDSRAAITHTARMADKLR
Sequence of IMP-1 (P52699 whole entry, looked up, species assumed): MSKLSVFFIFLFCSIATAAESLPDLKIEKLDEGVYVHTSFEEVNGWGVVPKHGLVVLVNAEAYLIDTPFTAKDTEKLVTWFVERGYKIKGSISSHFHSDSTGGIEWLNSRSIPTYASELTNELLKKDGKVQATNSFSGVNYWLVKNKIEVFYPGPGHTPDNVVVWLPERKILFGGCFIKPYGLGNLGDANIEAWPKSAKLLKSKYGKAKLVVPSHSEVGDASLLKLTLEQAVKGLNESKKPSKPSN

Compound | IC50 [1] [pM] | IC50 [2] [pM] | Escherichia coli expressing NDM-1 (CLB30016) MITC95 [3] [µM] | Klebsiella pneumoniae expressing VIM-1 (IHMA599644) MITC95 [4] [µM] | Serratia marcescens expressing IMP-1 (CL5741) MITC95 [5] [µM] | P. aeruginosa expressing IMP-1, efflux − (MB9799) MITC95 [6] [µM] | Efflux ratio [7] | P. aeruginosa expressing IMP-1, efflux + (MB9798) MITC95 [8] [µM] | IC50 ([9]; VIM-1 IC50, fluorescence assay) [pM] | IC50 [9, 10] [pM]
COC(=O)[C@H]1C[C@@H](NS(=O)(=O)c2ccc(-c3cccc4sc(N)nc34)c(-c3nnn[nH]3)c2S(N)(=O)=O)CN1 [Example 128, Methyl (2R,4R)-4-((4-(2-aminobenzo[d]thiazol-4-yl)-2-sulfamoyl-3-(1H-tetrazol-5-yl)phenyl)sulfonamido)pyrrolidine-2-carboxylate] | 44.3 | 177 | 3.125 | 12.5 | 6.25 | 6.25 | 1.00 | 6.25 | 199 | 
NS(=O)(=O)c1c(S(=O)(=O)N[C@@H]2CCNC2)ccc(-c2cccc3nc(O)[nH]c23)c1-c1nnn[nH]1 [Example 130, (R)-4-(2-hydroxy-1H-benzo[d]imidazol-7-yl)-N1-(pyrrolidin-3-yl)-3-(1H-tetrazol-5-yl)benzene-1,2-disulfonamide] | 52.9 | 684 | 1.563 | 3.125 | 1.563 | 1.563 | 0.50 | 0.7813 |  | 151
NS(=O)(=O)c1c(S(=O)(=O)N[C@@H]2CCNC2)ccc(-c2cccc3c2OC(F)(F)O3)c1-c1nnn[nH]1 [Example 131, (R)-4-(2,2-difluorobenzo[d][1,3]dioxol-4-yl)-N1-(pyrrolidin-3-yl)-3-(1H-tetrazol-5-yl)benzene-1,2-disulfonamide] | 275 | 1830 | 1.563 | 1.563 | 3.125 | 0.7813 | 16.00 | 12.5 |  | 120
N#Cc1cccc(-c2ccc(S(=O)(=O)N[C@@H]3CCNC3)c(S(N)(=O)=O)c2-c2nnn[nH]2)c1N [Example 132, (R)-2′-amino-3′-cyano-N4-(pyrrolidin-3-yl)-2-(1H-tetrazol-5-yl)-[1,1′-biphenyl]-3,4-disulfonamide] | 114 | 1400 | 0.7813 | 1.563 | 1.563 | 0.7813 | 4.00 | 3.125 |  | 124
NS(=O)(=O)c1c(S(=O)(=O)N[C@@H]2CCNC2)ccc(-c2ccc3nonc3c2)c1-c1nnn[nH]1 [Example 133, (R)-4-(benzo[c][1,2,5]oxadiazol-5-yl)-N1-(pyrrolidin-3-yl)-3-(1H-tetrazol-5-yl)benzene-1,2-disulfonamide] | 341 | 816 | 0.7813 | 1.563 | 1.563 | 0.7813 | 8.00 | 6.25 |  | 118
Cn1nnc2ccc(-c3ccc(S(=O)(=O)N[C@@H]4CCNC4)c(S(N)(=O)=O)c3-c3nnn[nH]3)cc21 [Example 134, (R)-4-(1-methyl-1H-benzo[d][1,2,3]triazol-6-yl)-N1-(pyrrolidin-3-yl)-3-(1H-tetrazol-5-yl)benzene-1,2-disulfonamide] | 301 | 2070 | 1.563 | 3.125 | 3.125 | 1.563 | 15.99 | 25 | 140 | 
NS(=O)(=O)c1ccc(-c2ccc(S(=O)(=O)N[C@@H]3CCNC3)c(S(N)(=O)=O)c2-c2nnn[nH]2)cc1 [Example 135, (R)-N4-(pyrrolidin-3-yl)-2-(1H-tetrazol-5-yl)-[1,1′-biphenyl]-3,4,4′-trisulfonamide] | 136 | 229 | 1.563 | 1.563 | 1.563 | 0.7813 | 1.00 | 0.7813 |  | 107
CS(=O)(=O)Nc1ccc(-c2ccc(S(=O)(=O)N[C@@H]3CCNC3)c(S(N)(=O)=O)c2-c2nnn[nH]2)cc1 [Example 136, (R)-4′-(methylsulfonamido)-N4-(pyrrolidin-3-yl)-2-(1H-tetrazol-5-yl)-[1,1′-biphenyl]-3,4-disulfonamide] | 36.8 | 75.5 | 1.563 | 1.563 | 3.125 | 0.7813 | 2.00 | 1.563 |  | 106
NC(=O)c1ccc(-c2ccc(S(=O)(=O)N[C@@H]3CCNC3)c(S(N)(=O)=O)c2-c2nnn[nH]2)cc1 [Example 137, (R)-4′-(N-(pyrrolidin-3-yl)sulfamoyl)-3′-sulfamoyl-2′-(1H-tetrazol-5-yl)-[1,1′-biphenyl]-4-carboxamide] | 126 | 265 | 3.125 | 3.125 | 3.125 | 0.7813 | 1.00 | 0.7813 |  | 157
NS(=O)(=O)c1c(S(=O)(=O)N[C@@H]2CCNC2)ccc(-c2ccc3c(c2)C(=O)NC3)c1-c1nnn[nH]1 [Example 138, (R)-4-(3-oxoisoindolin-5-yl)-N1-(pyrrolidin-3-yl)-3-(1H-tetrazol-5-yl)benzene-1,2-disulfonamide] | 124 | 275 | 3.125 | 3.125 | 3.125 | 1.563 | 1.00 | 1.563 |  | 150
NS(=O)(=O)c1c(S(=O)(=O)N[C@@H]2CCNC2)ccc(-c2cccc3cn[nH]c23)c1-c1nnn[nH]1 [Example 139, (R)-4-(1H-indazol-7-yl)-N1-(pyrrolidin-3-yl)-3-(1H-tetrazol-5-yl)benzene-1,2-disulfonamide] | 58.2 | 410 | 0.7813 | 3.125 | 1.563 | 0.7813 | 1.00 | 0.7813 | 140 | 
NS(=O)(=O)c1c(S(=O)(=O)N[C@@H]2CCNC2)ccc(-c2cnc3ccccn23)c1-c1nnn[nH]1 [Example 140, (R)-4-(imidazo[1,2-a]pyridin-3-yl)-N1-(pyrrolidin-3-yl)-3-(1H-tetrazol-5-yl)benzene-1,2-disulfonamide] | 86.7 | 779 | 0.7813 | 1.563 | 1.563 | 0.7813 | 2.00 | 1.563 |  | 111
